Source: patent US7169768B1, “Method of decreasing atherosclerosis and its complications” (priority 1997, dated 2007)

Experiment: Retrospective questionnaire study of patient-reported cardiac events (heart attack, coronary artery bypass or angioplasty)
Format: in vivo, patients
Details: for Events/Year: cardiac events per subject year, patients on drug for at least one year; for Cardiac Events: number of cardiac events (history of heart attack, coronary artery bypass or angioplasty) in patients on drug for at least one year; for observed difference between the proportions vs Total Control: treated group vs Total Control (Groups 1 + 4); for heart attacks compared with controls (in words): treated patients vs controls
Experimental: A retrospective study was performed which compared the rates of patient reported heart attack in several groups: 1—control group of males entering the urology office for any routine complaint. 2—a group of prostate cancer patients treated with Leuprolide acetate, a LHRH inhibitor. 3—a group of prostate cancer patients treated with Goserelin acetate (Zoladex), a LHRH inhibitor. 4—a group of prostate cancer patients not treated with hormonal manipulation (neither Leuprolide or Goserelin). 5—a group of patients treated with Finasteride (another form of hormonal manipulation). 6—all patients on LHRH inhibitors (group 2+group 3). The patients on either leuprolide acetate or goserelin acetate were treated with the recommended doses indicated for the treatment of prostatic carcinoma, at either one or three month intervals depending on the preparation used. Leuprolide was dosed at 7.5 mg monthly (single intramuscular injection) or at 22.5 mg at 3 month intervals (single intramuscular injection). Goserelin was dosed at 3.6 mg monthly (subcutaneous injection) or at a dose of 10.8 mg at 3 month intervals (subcutaneous injection). The various groups of office patients were given a questionnaire. In groups 2, 3 and 5 only those on drug for at least one year were considered. Cardiac event is defined as either the history of a heart attack or occurrence of coronary artery bypass or angioplasty. In control groups only events occurring in the 3 years prior to the questionnaire are charted.

SMILES | Events/Year | Cardiac Events | observed difference between the proportions vs Total Control | heart attacks compared with controls (in words) | observed difference between the proportions vs Group 1 (Control) (Group 5 vs Group 1 (control, no cancer))
CC(=O)O.CCNC(=O)[C@@H]1CCCN1C(=O)[C@H](CCCNC(=N)N)NC(=O)[C@H](CC(C)C)NC(=O)[C@@H](CC(C)C)NC(=O)[C@H](Cc1ccc(O)cc1)NC(=O)[C@H](CO)NC(=O)[C@H](Cc1c[nH]c2ccccc12)NC(=O)[C@H](Cc1c[nH]cn1)NC(=O)[C@@H]1CCC(=O)N1 [leuprolide acetate, 5-oxo-L-prolyl-L-histidyl-L-tryptophyl-L-seryl-L-tyrosyl-D-leucyl-L-leucyl-L-arginyl-N-ethyl-L-prolinamide acetate salt] | .00847 | 1 | 0.0253 | fewer heart attacks than controls | 
CC(C)C[C@H](NC(=O)[C@@H](COC(C)(C)C)NC(=O)[C@H](Cc1ccc(O)cc1)NC(=O)[C@H](CO)NC(=O)[C@H](Cc1c[nH]c2ccccc12)NC(=O)[C@H](Cc1cnc[nH]1)NC(=O)[C@@H]1CCC(=O)N1)C(=O)N[C@@H](CCCNC(=N)N)C(=O)N1CCC[C@H]1C(=O)NNC(N)=O [goserelin acetate, pyro-Glu-His-Trp-Ser-Tyr-D-Ser(Bu)-Leu-Arg-Pro-Azgly-NH2 acetate] | .0161 | 1 | 0.0177 | fewer heart attacks than controls | 
CC(C)(C)NC(=O)[C@H]1CC[C@H]2[C@@H]3CC[C@H]4NC(=O)C=C[C@]4(C)[C@H]3CC[C@]12C [Finasteride] | .0165 | 4 |  | fewer heart attacks than control | 0.0186
